The numbers were not newly measured in patent US20170035783A1, “COMPOSITION FOR THE PREVENTION AND THERAPY OF TUMOR DISEASES” (SANOXSYS GMBH, priority 2014, published 2017), which cites them from elsewhere.

The structures appear in SMILES notation.

This data set concerns breast cancer risk. The following applies: subcutaneous pellet, 2008-2010.

As to `C[C@]12CC[C@H]3[C@@H](CCC4=CC(=O)CC[C@@]43C)[C@@H]1CC[C@@H]2O` [testosterone alone, testosterone], the “breast cancer risk in pre- and postmenopausal women” value was “reduce the breast cancer risk”.
